From patent US9681664B2, “Macrocyclic picolinamides as fungicides” (Dow Agrosciences LLC, priority 2012, dated 2017)
Read-outs that look alike come from different tables or passages of the source.

Tests used:
Type in all cases: in vivo
[1] = test system: Phakopsora pachyrhizi; experiment: Asian soybean rust (PHAKPA) disease control; settings: topical, high volume
Procedure, shortened: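 Compounds in acetone diluted with nine volumes water containing 0.011% Tween 20, sprayed to run-off on two-week-old Williams 82 soybean seedlings, inoculated 3 days before or 1 day after treatment. Plants held 24 h in dark dew room at 22 °C, 100% RH, then at 23 °C; disease severity scored on sprayed leaves.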

[2] = test system: Puccinia triticina; Synonym: Puccinia recondite f. sp. tritici; experiment: Wheat brown rust (PUCCRT) disease control on wheat seedlings; settings: Puccinia triticina, Wheat Brown Rust, low volume application, 121.5 g/H
Procedure, shortened: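 Yuma wheat grown to first fully emerged leaf was inoculated with Puccinia triticina spore suspension either before or after fungicide treatment, held overnight at 22° C. and 100% RH in darkness, then kept at 24° C. Fungicide applied by booth sprayer to run-off (acetone/water, 110 ppm Triton X-100) or as EC by track spray.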

[3] = test system: Blumeria graminis f. sp. hordei; Synonym: Erysiphe graminis f. sp. hordei; experiment: Barley powdery mildew (ERYSGH) disease control; settings: 24 h, 1 Day Protectant, high volume, read-out: Disease Control ERYSGH 1 DP
Method: Technical grades of materials were dissolved in acetone, which were then mixed with nine volumes of water containing 110 ppm Triton X-100. The fungicide solutions were applied onto wheat seedlings using an automated booth sprayer to run-off. All sprayed plants were allowed to air dry prior to further handling. All fungicides were evaluated using the aforementioned method for their activity vs. all target diseases. Wheat leaf blotch and brown rust activity were also evaluated using track spray applications, in which case the fungicides were formulated as EC formulations, containing 0.1% Trycol 5941 in the spray solutions. Barley seedlings (variety Harrington) were propagated in soil-less Metro mix, with each pot having 8 to 12 plants, and used in the test when first leaf was fully emerged. Test plants were inoculated by dusting with infected stock plants 24 hr after fungicide treatments. After inoculation the plants were kept in a greenhouse set at 20° C. for disease to develop. Fungicide formulation, application and disease assessment on the sprayed leaves followed the procedures as described in the Example A.

[4] = test system: Cercospora beticola; experiment: Leaf spot of sugar beets (CERCBE) disease control; settings: 24 h, 1 Day Protectant, high volume, read-out: Disease Control CERCBE 1 DP
Method: Technical grades of materials were dissolved in acetone, which were then mixed with nine volumes of water containing 110 ppm Triton X-100. The fungicide solutions were applied onto wheat seedlings using an automated booth sprayer to run-off. All sprayed plants were allowed to air dry prior to further handling. All fungicides were evaluated using the aforementioned method for their activity vs. all target diseases. Wheat leaf blotch and brown rust activity were also evaluated using track spray applications, in which case the fungicides were formulated as EC formulations, containing 0.1% Trycol 5941 in the spray solutions. Sugar beet plants (variety HH88) were grown in soil-less Metro mix and trimmed regularly to maintain a uniform plant size prior to test. Plants were inoculated with a spore suspension 24 hr after fungicide treatments. Inoculated plants were kept in a dew chamber at 22° C. for 48 hr then incubated in a greenhouse set at 24° C. under a clear plastic hood with bottom ventilation until disease symptoms were fully expressed. Fungicide formulation, application and disease assessment on the sprayed leaves followed the procedures as described in the Example A.

[5] = test system: Mycosphaerella graminicola; Anamorph: Septoria tritici; experiment: Leaf blotch of wheat (SEPTTR) disease control on wheat seedlings; settings: Zymoseptoria tritici, Wheat Leaf Blotch, low volume application, 121.5 g/H
Procedure, shortened: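 Protective or curative format: Septoria tritici inoculation either preceded or followed fungicide application to first-leaf Yuma wheat. Severity scored 0–100%; control expressed versus untreated.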

[6] = test system: Magnaporthe grisea; Anamorph: Pyricularia oryzae; experiment: whole plant or invertebrate; settings: 24 h, read-out: PYRIOR 1 DP disease control
[7] = test system: Uncinula necator; experiment: Grape powdery mildew (UNCINE) disease control; settings: Erysiphe necator, 24 h, High volume application, 1 Day Protectant, read-out: UNCINE 1 DP disease control
Method: Technical grades of materials were dissolved in acetone, which were then mixed with nine volumes of water containing 110 ppm Triton X-100. The fungicide solutions were applied onto wheat seedlings using an automated booth sprayer to run-off. All sprayed plants were allowed to air dry prior to further handling. All fungicides were evaluated using the aforementioned method for their activity vs. all target diseases. Wheat leaf blotch and brown rust activity were also evaluated using track spray applications, in which case the fungicides were formulated as EC formulations, containing 0.1% Trycol 5941 in the spray solutions. Grape seedlings (variety Carignane) were grown in soil-less Metro mix, with one plant per pot, and used in the test when approximately one month old. Plants were inoculated 24 hr after fungicide treatment by shaking spores from infected leaves over test plants. Plants were maintained in a greenhouse set at 20° C. until disease was fully developed. Fungicide formulation, application and disease assessment on the sprayed leaves followed the procedures as described in the Example A.

[8] = 24 h, 1 Day Protectant, read-out: Disease Control PHAKPA 1DP
[9] = 72 h, 3 Day Curative, read-out: Disease Control PHAKPA 3DC
[10] = 24 h, 1 Day Protectant, read-out: Disease Control PUCCRT 1 DP 121.5 g/H
[11] = 72 h, 3 Day Curative, read-out: Disease Control PUCCRT 3 DC 121.5 g/H
[12] = 24 h, 1 Day Protectant, read-out: Disease Control SEPTTR 1 DP 121.5 g/H
[13] = 72 h, 3 Day Curative, read-out: Disease Control SEPTTR 3 DC 121.5 g/H

With `COc1ccnc(C(=O)N[C@H]2CCC[C@H](OCC(C)C)[C@@H](OC)[C@H](C)OC2=O)c1OCOC(C)=O` [F251] the pest or weed control at 25 ppm [1, 8] was 80 to 100%, the pest or weed control at 25 ppm [1, 9] was 0 to 80% and the pest or weed control at 121.5 g/ha [2, 10] was 80 to 100%. It also gave a pest or weed control at 121.5 g/ha [2, 11] of 80 to 100%, a pest or weed control at 100 ppm [3] of under 0% and a pest or weed control at 100 ppm [4] of 0 to 80%. It also gave a pest or weed control at 121.5 g/ha [5, 12] of under 0%, a pest or weed control at 121.5 g/ha [5, 13] of under 0% and a pest or weed control at 100 ppm [6] of 80 to 100%. It also gave a pest or weed control at 100 ppm [7] of 0 to 80%.

In the case of `COc1ccnc(C(=O)N[C@H]2CCC[C@H](Oc3ccccc3)[C@@H](OC)[C@H](C)OC2=O)c1OCOC(C)=O` [F252], the pest or weed control at 25 ppm [1, 8] is reported as 80 to 100%, the pest or weed control at 25 ppm [1, 9] is reported as 0 to 80% and the pest or weed control at 121.5 g/ha [2, 10] is reported as 80 to 100%. The pest or weed control at 121.5 g/ha [2, 11] was 80 to 100%, the pest or weed control at 100 ppm [3] was 0 to 80% and the pest or weed control at 100 ppm [4] was 0 to 80%. The pest or weed control at 121.5 g/ha [5, 12] was 0 to 80%, the pest or weed control at 121.5 g/ha [5, 13] was 0 to 80% and the pest or weed control at 100 ppm [6] was 80 to 100%. The pest or weed control at 100 ppm [7] was 0 to 80%.

`C=C(C)CO[C@H]1CCC[C@H](NC(=O)c2nccc(OC)c2OCOC(=O)C(C)C)C(=O)O[C@@H](C)[C@@H]1OC` [F253] showed a pest or weed control at 25 ppm [1, 8] of 0 to 80%, a pest or weed control at 25 ppm [1, 9] of under 0% and a pest or weed control at 121.5 g/ha [2, 10] of 80 to 100%. It also gave a pest or weed control at 121.5 g/ha [2, 11] of 80 to 100%, a pest or weed control at 100 ppm [3] of 0 to 80% and a pest or weed control at 100 ppm [4] of under 0%. It also gave a pest or weed control at 121.5 g/ha [5, 12] of under 0%, a pest or weed control at 121.5 g/ha [5, 13] of under 0% and a pest or weed control at 100 ppm [6] of 80 to 100%. For the same compound, the pest or weed control at 100 ppm [7] was 0 to 80%.

`COc1ccnc(C(=O)N[C@H]2CCC[C@H](OCC(C)C)[C@@H](OC)[C@H](C)OC2=O)c1OCOC(=O)C(C)C` [F254] gave a pest or weed control at 25 ppm [1, 8] of 80 to 100%, a pest or weed control at 25 ppm [1, 9] of 0 to 80% and a pest or weed control at 121.5 g/ha [2, 10] of 80 to 100%. The pest or weed control at 121.5 g/ha [2, 11] was 80 to 100%, the pest or weed control at 100 ppm [3] was 0 to 80% and the pest or weed control at 100 ppm [4] was 0 to 80%. It also gave a pest or weed control at 121.5 g/ha [5, 12] of under 0%, a pest or weed control at 121.5 g/ha [5, 13] of under 0% and a pest or weed control at 100 ppm [6] of 80 to 100%. It also gave a pest or weed control at 100 ppm [7] of 0 to 80%.

Compound `COc1ccnc(C(=O)N[C@H]2CCC[C@H](Oc3ccccc3)[C@@H](OC)[C@H](C)OC2=O)c1OCOC(=O)C(C)C` [F255] has a pest or weed control at 25 ppm [1, 8] of 80 to 100%, a pest or weed control at 25 ppm [1, 9] of 0 to 80% and a pest or weed control at 121.5 g/ha [2, 10] of 80 to 100%. The pest or weed control at 121.5 g/ha [2, 11] was 80 to 100%, the pest or weed control at 100 ppm [3] was 0 to 80% and the pest or weed control at 100 ppm [4] was 0 to 80%. For the same compound, the pest or weed control at 121.5 g/ha [5, 12] was 0 to 80%, the pest or weed control at 121.5 g/ha [5, 13] was 0 to 80% and the pest or weed control at 100 ppm [6] was 80 to 100%. It also gave a pest or weed control at 100 ppm [7] of 80 to 100%.
